Experimental data as given in patent US20070238700A1, “N-PHENYL-1,1,1-TRIFLUOROMETHANESULFONAMIDE HYDRAZONE DERIVATIVE COMPOUNDS AND THEIR USAGE IN CONTROLLING PARASITES” (priority 2006, published 2007).
Like-named read-outs stand apart in the source and are kept apart here.

Columns and labels:
Ctenocephalides felis [1] = test system: Ctenocephalides felis
Summary of the method: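 Adult cat fleas (3–7 days post-emergence), 15 per flask in ≥4 replicates, exposed to a dried acetone residue at 1.26 μg/cm^2 on a Coatasil-treated glass flask base. Held at 25±1° C, 75±5% humidity; mortality (immobile or unable to right) scored at 8, 24 and/or 48 h.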

Rhipicephalus sanguineus [2] = experiment: Rapid screening protocol for topical application on brown dog ticks (% mortality); design: concentration or dose not given beside the values; conditions: data from laboratory 2
Experimental: d) Rapid Screening Protocol for Topical Application on Brown Dog Ticks (Rhipicephalus sanguineus)
The aim of the test was to determine the presence of significant acaricidal activity in sample compounds or formulations when applied topically on brown dog ticks. A tick was defined as dead if it gave no apparent response when touched lightly and observed for 1 minute. To assess the experimental compound for acaricidal activity, a single dose level was chosen based on known results from previous experiments with a commercially available active reference compound. Both permethrin and fipronil were employed as reference compounds. The insect species tested was the Brown Dog Tick (Rhipicephalus sanguineus). Mixed sex adult ticks were used for tests. The strain used was cultured by von Berky Veterinary Services, Woody Point, QLD, AU and supplied as unfed adult ticks (mixed sex). Ticks were maintained in controlled conditions (temp. 18°±2° C., humidity 75±5% RH).
Test compounds (formulations or active ingredients) were stored in a refrigerator (5±1° C.) unless otherwise specified. Temperature was maintained at 25±1° C. and the humidity was ambient. The screening dose chosen was higher than that known to kill 90% of insects (LD90) using the reference compound. In the case of topical application of active compounds on adult ticks, the reference compound was fipronil and the dose chosen was 10 μg of active per tick (=10 μg of fipronil/1 μl of acetone). Ticks were each treated on the abdomen with 1 μL of a single dose level of test sample in acetone; ten ticks were treated with solvent only (acetone) in each test. Tests were replicated 4 times (total of 40 ticks treated). Ticks were held in recovery containers maintained under appropriate rearing conditions for 24 hours. Mortality resulting from the treatments was recorded at 24 hours. Pooled 24 hour mortality data were converted to percentages.

Ctenocephalides felis [3] = experiment: Ctenocephalides felis adulticide assay: C. felis dose response (LC50)
Text: c) Ctenocephalides felis Adulticide Assay: C. felis Dose Response
The purpose of this example was to determine the LC50 when cat fleas were contacted with a glass surface treated with sample compounds or formulations prepared as described above. […] The test species was the cat flea (Ctenocephalides felis). The strain used was obtained from external suppliers as pupae and held in the laboratory under testing conditions until the adults had emerged. Fifteen (15) fleas were used in a minimum of four replicates for each dose level (total of 60 fleas per dose level). The insects were selected to be in the adult life stage, aged between 3 and 7 days post emergence.
The compounds to be tested were dissolved in acetone just prior to testing. Samples of compounds were stored in a refrigerator (5±1° C.) unless otherwise specified. During the mortality testing, the temperature was maintained at 25±1° C. Humidity was maintained at 75±5%. The base (area=159 mm^2) of a 100 mL glass Erlenmeyer (conical) flask provided the treatment surface. Flasks were pretreated with Coatasil™ glass treatment to maximise bio-availability of test compounds by preventing them from binding to the glass surface.
The base of the 100 mL Erlenmeyer flask was treated with 0.5 mL of test sample in acetone and gently swirled. This volume was sufficient to cover the base of the flask. Flasks were left to dry for 24 hours before flea exposure. Adult cat fleas were lightly anaesthetised by cooling and then placed into a sorting chamber, which allowed fleas to revive and jump into the Erlenmeyer flasks. Fifteen (15) adult cat fleas were collected in each flask. The top of the flasks were then covered in Parafilm™ and small holes made to allow gas exchange. A 0.5 mL volume of acetone was applied to the base of an Erlenmeyer flask and the testing proceeded in the same manner described above. Cat fleas in the treatment containers were held under testing conditions for 24 hours. Mortality resulting from the treatments was recorded at 8 and 24 hours.

Rhipicephalus sanguineus [4] = experiment: Dose response protocol for topical application on brown dog ticks (LD50); conditions: 24 h mortality, probit analysis
Experimental: e) Dose response protocol for topical application on brown dog ticks (Rhipicephalus sanguineus): The test determines the level of insecticidal activity of sample compounds or formulations when applied topically on brown dog ticks. Sample compounds were stored prior to use in a freezer (−5±1° C.), unless otherwise specified.
• Mortality: A tick is defined as dead after it gives no apparent response when touched lightly or gently breathed upon, while observed for 30 seconds. • LD50 (Lethal Dose 50): The dose of a topically applied treatment at which 50% of the dog ticks are killed. • Reference compound: To assess an experimental compound for significant acaricidal activity a single dose level is chosen, which is based upon known results from previous experiments using a commercially available active i.e., a reference compound. The reference compound selected is one in common use, and one that has a similar mode of action against the Brown Dog Tick (i.e., the test species), • Recovery container: A recovery container consists of a 500 ml round plastic container measuring 115 mm diameter and 70 mm height, with a tight fitting lid that has 10 small (˜1 mm) holes inserted for air exchange. A 90 mm diameter piece of filter paper was placed on the bottom of the container and moistened with 1 mL of distilled water.
Adult, mixed sex, Brown Dog Ticks (Rhipicephalus sanguineus) were reared as follows: (i) cultured, (ii) transferred unfed, to a testing laboratory, and (iii) then maintained under controlled conditions (i.e., temp. 18°±2° C., humidity 75±5% RH). The ticks used were selected for vigor prior to testing, i.e., capable of actively walking and responsive to being touched or gently breathed upon.
During the testing, the temperature was maintained at 25±1° C. and the humidity was ambient. Seven dose levels (concentrations) of sample compound, in the form of serial dilutions in acetone, were derived from a pilot study and covered a range that produced very low to very high mortality. Groups of ten ticks were treated topically (on the abdomen) with 1 μL of a single dose level of the sample compound. Each test was replicated four times, i.e., employing a total of 40 ticks per dose level of each sample compound. As a control, ten ticks were treated with solvent only (acetone) for each test. Following the treatment, the ticks were held in recovery containers maintained under appropriate rearing conditions for 24 hours. Mortality resulting from the treatments was recorded at 24 hours. […] Press, London (1971).]

Structure (SMILES) | C. felis Mortality (%) 24 h (Ctenocephalides felis [1]) [%] | C. felis Mortality (%) 48 h (Ctenocephalides felis [1]) [%] | R. sanguineus Mortality (%) 24 h (Rhipicephalus sanguineus [2]) [%] | C. felis LC50 (Ctenocephalides felis [3]) [ppm] | R. sanguineus LD50 (Rhipicephalus sanguineus [4]) [μg/tick] | C. felis Mortality (%) 24 h (Ctenocephalides felis [1]; 24 h, data from laboratory 1) [%] | C. felis Mortality (%) 48 h (Ctenocephalides felis [1]; 48 h, data from laboratory 1) [%] | C. felis LC50 (Ctenocephalides felis [3]; data from laboratory 1) [ppm] | C. felis Mortality (%) 8 h (Ctenocephalides felis [1]) [%]
CCCN(N=C(C)c1cc(Cl)ccc1NS(=O)(=O)C(F)(F)F)c1ccc(Cl)cc1 [Compound 27] | 100 | 100 | 95 | 0.23 | 5.5 |  |  |  | 
CCN(N=C(C)c1cc(Cl)ccc1NS(=O)(=O)C(F)(F)F)c1ccc(Cl)cc1Cl [Compound 30] | 100 | 100 | 90 | 5.2 | 8.5 |  |  |  | 
CCN(N=C(C)c1cc(Cl)ccc1NS(=O)(=O)C(F)(F)F)c1ccccc1 [Compound 34] |  |  | 100 |  | 3.6 | 100 | 100 | 0.97 | 
CCC(=NN1CCOC1=O)c1cc(Cl)ccc1NS(=O)(=O)C(F)(F)F [Compound 35] | 100 | 100 | 100 | 4.3 | 1.5 |  |  |  | 
CCC(=NN1CCOCC1)c1cc(Cl)ccc1NS(=O)(=O)C(F)(F)F [Compound 36] | 100 | 100 | 100 | 2.5 | 1.8 |  |  |  | 
CCN(N=C(C)c1cc(Cl)ccc1NS(=O)(=O)C(F)(F)F)c1cccc(Cl)c1 [Compound 38] | 100 | 100 | 98 | 2.5 | 3.6 |  |  |  | 
CCN(N=C(C)c1cc(Cl)ccc1NS(=O)(=O)C(F)(F)F)c1ccc(F)cc1 [Compound 39] | 100 | 100 | 100 | 0.14 | 3.6 |  |  |  | 
CCCN(N=C(C)c1cc(Cl)ccc1NS(=O)(=O)C(F)(F)F)c1ccc(C(F)(F)F)cc1 [Compound 41] | 94 | 100 | 100 | 0.44 | 3.8 |  |  |  | 
CCN(N=C(C)c1cc(Cl)ccc1NS(=O)(=O)C(F)(F)F)c1ccccc1F [Compound 43] | 90 | 100 | 100 | 0.35 | 3.0 |  |  |  | 
CC(=NN(c1ccc(F)cc1)C(C)C)c1cc(Cl)ccc1NS(=O)(=O)C(F)(F)F [Compound 48] | 100 |  | 80 | 0.64 | 6.3 |  |  |  | 95
CC(=NN(C)c1ccccc1F)c1cc(Cl)ccc1NS(=O)(=O)C(F)(F)F [Compound 49] | 100 |  | 100 |  | 1.6 |  |  | 0.31 | 100
CC(=NN(C)c1cccc(Cl)c1)c1cc(Cl)ccc1NS(=O)(=O)C(F)(F)F [Compound 51] | 100 |  | 100 | 0.82 | 2.6 |  |  |  | 100
CCN(N=C(C)c1cc(Cl)ccc1NS(=O)(=O)C(F)(F)F)c1ccc(Br)cc1 [Compound 54] | 100 |  | 95 | 1.6 | 5.6 |  |  |  | 95
CC(=NN1CC(=O)NC1=O)c1cc(Cl)ccc1NS(=O)(=O)C(F)(F)F [Compound 55] | 100 |  | 100 |  | 1.7 |  |  | 2.5 | 100
